From patent US12157730B2, “Heteroaryl derivative, method for producing same, and pharmaceutical composition comprising same as effective component” (VORONOI INC., priority 2019, dated 2024)

What was measured:
[1] = Cancer cell proliferation suppression, A549; type: cell-based; details: A459; 72 hours after treatment, CellTiter-Glo
Experimental: (§1) The following experiment was carried out to evaluate the suppression activity of the compounds according to the present invention against proliferation of Ba/F3 and lung cancer cells which express EGFR mutations.
(§2) Of the cancer cell lines expressing the EGFR gene, A549 was cultured after adding 10% FBS (HyClone) to DMEM (Invitrogen), and RPMI-1640 (Invitrogen) with 10% FBS was used for the other cancer cells. For the Ba/F3 cells, RPMI-1640 with 10% FBS and 5 ng/ml IL-3 (R&D Systems) was used. The transduced Ba/F3 cells were cultured by adding 1 ug/ml puromycin (Invitrogen) to the same medium.
(§3) 24 hours before treatment with the compounds, 3000 to 5000 cells were distributed into each well of a white clear bottom 96 well plate (Corning). The compounds were diluted in dimethylsulfoxide (dilution ratio 3:1; 12 concentrations total) and injected 0.5 ul each for a final concentration of 0.3 nM to 50 um. As for measurement of live cells, 72 hours after treatment with the compounds, a CellTiter-Glo luminescent cell-viability reagent (Promega) was used to store the cells at room temperature for 10 minutes, followed by measurement of luminescence using a reader (SynergyNeo, Biotek). Each test was repeated three times.
(§4) The result was calculated as a cell growth ratio (%) compared to a control. The program GraphPad Prism version 5.0 was used to draw the graphs and calculate the GI50 values.

[2] = molecular target: T1, Ba/F3 cell EGFR Exon20 ins SVD (Homo sapiens, UniProt P00533, INS770SVD); assay: Ba/F3 cell proliferation suppression, EGFR Exon20 ins SVD; type: cell-based; details: 72 hours after treatment, CellTiter-Glo
T1 construct: expressed in transfected cells; host or cells: Ba/F3
Method in brief: (§5)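 After 72 h compound exposure (twelve 3-fold steps, 0.3 nM–50 um final), live cells were measured by CellTiter-Glo luminescence and growth expressed as % of control to derive GI50. Cells were seeded at 3000–5000 per well a day earlier; Ba/F3 medium contained IL-3; three repeats.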

PC9GR = assay: Lung cancer cell proliferation suppression, PC9GR; type: cell-based; details: 72 hours after treatment, CellTiter-Glo
Method in brief: as §5

[3] = molecular target: T2, Ba/F3 cell EGFR Exon20 ins FQEA (Homo sapiens, UniProt P00533, INS763FQEA); assay: Ba/F3 cell proliferation suppression, EGFR Exon20 ins FQEA; type: cell-based; details: 72 hours after treatment, CellTiter-Glo
T2 construct: expressed in transfected cells; host or cells: Ba/F3
Method in brief: as §5

[4] = molecular target: T3, Ba/F3 cell EGFR Exon20 ins ASV (Homo sapiens, UniProt P00533, INS769ASV); assay: Ba/F3 cell proliferation suppression, EGFR Exon20 ins ASV; type: cell-based; details: 72 hours after treatment, CellTiter-Glo
T3 construct: expressed in transfected cells; host or cells: Ba/F3
Method in brief: as §5

[5] = tested on: Ba/F3 cell EGFR Exon20 ins H; assay: Ba/F3 cell proliferation suppression, EGFR Exon20 ins H; type: cell-based; details: 72 hours after treatment, CellTiter-Glo
Experimental: as §1, §2, §3, §4

Ba/F3 cell EGFR L858R = molecular target: T4, Ba/F3 cell EGFR L858R (Homo sapiens, UniProt P00533, L858R); assay: Ba/F3 cell proliferation suppression, EGFR L858R; type: cell-based; details: 72 hours after treatment, CellTiter-Glo
T4 construct: expressed in transfected cells; host or cells: Ba/F3
Method in brief: as §5

[6] = tested on: Ba/F3 cell EGFR Del19/T790M; assay: Ba/F3 cell proliferation suppression, EGFR Del19/T790M; type: cell-based; details: 72 hours after treatment, CellTiter-Glo
Method in brief: as §5

[7] = molecular target: T5, Ba/F3 cell HER2 Exon20 ins YVMA (Homo sapiens, UniProt P04626, INS775YVMA); assay: Ba/F3 cell proliferation suppression, HER2 Exon20 ins YVMA; type: cell-based; details: 72 hours after treatment, CellTiter-Glo
T5 construct: expressed in transfected cells; host or cells: Ba/F3
Method in brief: as §5

[8] = molecular target: T6, Ba/F3 cell EGFR Exon20 ins NPH (Homo sapiens, UniProt P00533, INS773NPH); assay: Ba/F3 cell proliferation suppression, EGFR Exon20 ins NPH; type: cell-based; details: for GI50: 72 hours after treatment, CellTiter-Glo; for Ba/F3 (NPH) Activity: GI50 class, Ba/F3 cell line with NPH inserted at Exon20 of EGFR, 72 hours
T6 construct: expressed in transfected cells; host or cells: Ba/F3
Method in brief: as §5

H1975 = assay: Lung cancer cell proliferation suppression, H1975; type: cell-based; details: Homo sapiens, NCI-H1975; 72 hours after treatment, CellTiter-Glo
Method in brief: as §5

[9] = molecular target: T7, Ba/F3 cell EGFR L858R/T790M (Homo sapiens, UniProt P00533, L858R/T790M); assay: Ba/F3 cell proliferation suppression, EGFR L858R/T790M; type: cell-based; details: 72 hours after treatment, CellTiter-Glo
T7 construct: expressed in transfected cells; host or cells: Ba/F3
Method in brief: as §5

[10] = tested on: scanMAX kinase panel (EGFR mutant, ERBB2, ERBB4); assay: DiscoverX (eurofin) KINOMEscan (scanMAX platform) kinase profiling; type: binding; details: for suppression activity against the EGFR mutant and ERBB2 and ERBB4: KINOMEscan scanMAX kinase profiling
Description: It was confirmed that the above example compounds had high selectivity against EGFR series genes. Accordingly, these can be useful in the treating of cancers wherein this kinase is expressed. In particular, as they have substantially outstanding lung cancer cell line proliferation suppression, they can be useful in the treatment of lung cancer, breast cancer, and brain cancer.

Ba/F3 cell naive = assay: Ba/F3 cell proliferation suppression, naive; type: cell-based; details: Mus musculus, BaF3; 72 hours after treatment, CellTiter-Glo
Method in brief: as §5

PC9 = assay: Lung cancer cell proliferation suppression, PC9; type: cell-based; details: Homo sapiens, PC-9; 72 hours after treatment, CellTiter-Glo
Method in brief: as §5

T5 sequence (P04626 with tags, fused parts or gaps INS775YVMA): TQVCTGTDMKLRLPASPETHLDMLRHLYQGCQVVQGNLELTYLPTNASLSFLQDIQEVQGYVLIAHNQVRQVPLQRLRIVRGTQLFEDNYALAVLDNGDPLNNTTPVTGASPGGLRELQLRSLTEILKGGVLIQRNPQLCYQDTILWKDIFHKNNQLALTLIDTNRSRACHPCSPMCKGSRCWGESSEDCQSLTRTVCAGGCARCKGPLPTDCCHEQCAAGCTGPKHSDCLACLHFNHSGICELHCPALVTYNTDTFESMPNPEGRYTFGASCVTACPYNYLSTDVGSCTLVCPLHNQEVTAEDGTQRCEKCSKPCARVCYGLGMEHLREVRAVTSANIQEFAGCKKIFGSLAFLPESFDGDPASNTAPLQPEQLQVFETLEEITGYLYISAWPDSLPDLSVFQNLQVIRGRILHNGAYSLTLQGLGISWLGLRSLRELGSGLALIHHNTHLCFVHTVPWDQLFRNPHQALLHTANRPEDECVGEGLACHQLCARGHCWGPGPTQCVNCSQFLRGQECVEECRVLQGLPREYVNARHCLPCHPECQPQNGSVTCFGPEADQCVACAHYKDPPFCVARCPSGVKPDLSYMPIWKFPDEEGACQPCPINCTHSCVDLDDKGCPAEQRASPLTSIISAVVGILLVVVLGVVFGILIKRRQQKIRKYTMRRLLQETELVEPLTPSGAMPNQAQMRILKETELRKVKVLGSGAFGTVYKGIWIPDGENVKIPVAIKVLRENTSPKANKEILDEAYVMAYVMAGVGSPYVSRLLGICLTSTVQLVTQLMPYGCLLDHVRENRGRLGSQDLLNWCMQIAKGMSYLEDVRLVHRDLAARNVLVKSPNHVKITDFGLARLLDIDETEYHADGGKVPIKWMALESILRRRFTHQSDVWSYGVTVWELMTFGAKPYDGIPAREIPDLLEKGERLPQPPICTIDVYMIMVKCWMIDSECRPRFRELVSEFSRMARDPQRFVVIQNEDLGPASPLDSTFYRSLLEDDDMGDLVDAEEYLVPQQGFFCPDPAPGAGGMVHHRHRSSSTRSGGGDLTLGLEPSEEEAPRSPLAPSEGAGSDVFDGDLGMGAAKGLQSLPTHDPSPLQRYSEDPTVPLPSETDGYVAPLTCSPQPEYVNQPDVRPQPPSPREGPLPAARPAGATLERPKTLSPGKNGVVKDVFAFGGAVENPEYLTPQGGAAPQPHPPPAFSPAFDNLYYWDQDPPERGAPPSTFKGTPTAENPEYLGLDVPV

Row | SMILES | GI50 [1] | GI50 [2] | GI50 (PC9GR) | GI50 [3] | GI50 [4] | GI50 [5] | GI50 (Ba/F3 cell EGFR L858R) | GI50 [6] | GI50 [7] | GI50 [8] | Ba/F3 (NPH) Activity [8] | GI50 (H1975) | GI50 [9] | % inhibition of scanMAX Kinase profiling ([10]; EGFR(E746-A750del)) | % inhibition of scanMAX Kinase profiling ([10]; EGFR(G719C)) | % inhibition of scanMAX Kinase profiling ([10]; EGFR(G719S)) | % inhibition of scanMAX Kinase profiling ([10]; EGFR(L747-E749del, A750P)) | % inhibition of scanMAX Kinase profiling ([10]; EGFR(L747-T751del.Sins)) | % inhibition of scanMAX Kinase profiling ([10]; EGFR(L858R)) | % inhibition of scanMAX Kinase profiling ([10]; EGFR(L858R.T790M)) | further results
1 | C=CC(=O)Nc1cc(Nc2cc(N3OCC[C@@H]3c3ccccc3)ncn2)c(OC)cc1N(C)CCN(C)C [Example 4] | > 15000 nM | < 0.05 µM | 20 nM | < 0.05 µM | < 0.05 µM | < 0.05 µM | < 0.05 µM | < 0.05 µM | < 0.05 µM | < 0.05 µM | A (GI50 < 50 nM) | 28 nM | < 0.05 µM | 100% | 100% | 100% | 97% | 100% | 100% | 96% | % inhibition of scanMAX Kinase profiling ([10]; EGFR(L861q)): 100%; % inhibition of scanMAX Kinase profiling ([10]; EGFR(S752-I759del)): 100%; % inhibition of scanMAX Kinase profiling ([10]; EGFR(T790M)): 99%; % inhibition of scanMAX Kinase profiling ([10]; ERBB2): 100%; % inhibition of scanMAX Kinase profiling ([10]; ERBB4): 100%; suppression activity against the EGFR mutant and ERBB2 and ERBB4 [10]: high suppression activity; GI50 (Ba/F3 cell naive): ≥ 5 µM; GI50 (PC9): 1 nM
2 | C=CC(=O)Nc1cc(Nc2cc(N3OCC[C@@H]3c3ccccc3)ncn2)c(OC)cc1N1CCC(N2CCN(C)CC2)CC1 [Example 9] | > 15000 nM | < 0.05 µM | 4 nM | < 0.05 µM | < 0.05 µM | < 0.05 µM | < 0.05 µM | < 0.05 µM | < 0.05 µM | < 0.05 µM | A (GI50 < 50 nM) | 6 nM | < 0.05 µM | 100% | 100% | 100% | 100% | 100% | 100% | 96% | % inhibition of scanMAX Kinase profiling ([10]; EGFR(L861q)): 100%; % inhibition of scanMAX Kinase profiling ([10]; EGFR(S752-I759del)): 100%; % inhibition of scanMAX Kinase profiling ([10]; EGFR(T790M)): 99%; % inhibition of scanMAX Kinase profiling ([10]; ERBB2): 100%; % inhibition of scanMAX Kinase profiling ([10]; ERBB4): 100%; suppression activity against the EGFR mutant and ERBB2 and ERBB4 [10]: high suppression activity; GI50 (Ba/F3 cell naive): ≥ 5 µM; GI50 (PC9): 1 nM
